Test [1] has as its system anti-CD19 CAR-T cells with A549.CD19 and Granta-519 tumor spheroids. The experiment in a line: Cytokine production of chronically stimulated, concurrently treated CAR-T cells, 3D spheroids. It counts as cell-based, human. Particulars: concurrent treatment during chronic stimulation, five days. As for the experimental part: (§1) To simulate conditions of chronic stimulation, approximately 20,000 anti-CD19 CAR-expressing T cells of a combined CAR-T cell composition produced as described in Example 2 from two healthy adult donors were incubated with 30 µg/mL of plate-bound CAR-specific anti-idiotypic antibody (see, e.g., WO2018/023100) at 37 °C for a period of seven days. During this seven-day period, engineered CAR T cells were concurrently treated with Compound 17(0.1-1000 nM) or a vehicle control added at day 0.
(§2) To further assess activity of chronically stimulated cell, the chronically stimulated CAR-T cells that had been concurrently treated with DGKi were incubated with A549 CD19+ tumor spheroids or Granta-519 tumor spheroids to rechallenge the CAR-T cells at an effector to target ratio of 1:2 for up to 14 days. The tumor spheroids were engineered to express a red fluorescent dye to permit monitoring of tumor cell lysis by microscopy during the assay.
Supernatant was collected at day 5 from the above tumor spheroid cultures with chronically stimulated CAR-expressing T cells. Cytokine production was measured from the supernatant by meso scale discovery (MSD) analysis of the collected cell supernatants. […] Duplicate values for cell compositions manufactured from the two different healthy donors are shown.

The test system of the next test is anti-CD19 CAR-T cells. The test is described as follows: CAR-T cell proliferation during stimulation (Incucyte). The class given is cell-based, human. Particulars: 30 μg/mL plate-bound anti-idiotypic antibody, seven days. From the text: T cell compositions containing T cells expressing an exemplary anti-CD19 CAR were generated from leukapheresis samples from two healthy human adult donors by a process that included immunoaffinity-based selection of T cells by separately selecting CD4+ and CD8+ cells from the samples, resulting in two compositions enriched for CD4+ and CD8+ cells, respectively, per donor. Cells of the enriched CD4+ and CD8+ compositions were separately activated with anti-CD3/anti-CD28 beads and subjected to lentiviral transduction with a vector encoding an anti-CD19 CAR. […]
Prior to use, the cryopreserved CD4+ and CD8+ CAR-engineered cell compositions were thawed and combined at approximately a 1:1 CD4:CD8 ratio for each donor to prepare a combined CD4+ CAR+ and CD8+ CAR+ T cell composition. The effects of treatment with Compound 17 at various concentrations (0.1 nM, 1 nM, 10 nM, 100 nM, or 1000 nM) added at day 0 during stimulation of the combined CAR-T cell composition with a plate-bound CAR-specific anti-idiotypic antibody (see, e.g., WO2018/023100) or during co-culture with CD19-expressing cells was then assessed.
T cell proliferation during stimulation with 30 μg/mL of plate-bound anti-CAR anti-idiotypic antibody in the presence of Compound 17 was monitored for seven days using an Incucyte imaging system. […]

The next test deals with anti-CD19 CAR T cells. The experiment in a line: In vivo expansion and/or persistence of CAR T cells from different donors, Raji-rFluc NSG mice (Example 8). Particulars: 0.3 mg/kg oral once daily Days 1-7, four donors, vs CAR T cells alone. As for the experimental part: The effects of Compound 17 administration on in vivo expansion and/or persistence of CAR T cells produced from different healthy donors were assessed.

The subject of test [2] is A549.CD19 and Granta-519 tumor spheroids. The test is described as follows: Cytolytic activity of chronically stimulated, concurrently treated CAR-T cells, 3D spheroids. The class given is cell-based, human. The settings on record: concurrent treatment during chronic stimulation, day 9. The protocol:
as §1, §2
The antigen-specific cytolytic activity of the chronically stimulated CAR-expressing T cells was assessed by monitoring fluorescence (indicative of tumor cell lysis) over time. The tumor volume (normalized to time zero) was measured as the number of red calibrated units (RCU)×μm^2 area. […] Duplicate values for cell compositions manufactured from the two different healthy donors are shown.

Test [3] deals with engineered T cells for the T cell therapy. The experiment in a line: In vivo anti-tumor effects and CAR T cell expansion/persistence with continuous DGKi dosing (summary of observations). From the text: Without wishing to be limited by a specific mechanism of action, the results shown herein are consistent with a finding that the continuous presence of the DGKi following T cell therapy administration may prevent or reduce exhaustion in T cells of the T cell therapy, thereby improving T cell anti-tumor activity and proliferative capacity following administration.

The subject of test [4] is anti-CD19 CAR-T cells with A549.CD19 and Granta-519 tumor spheroids. The test is described as follows: Rescue treatment: cytokine production of chronically stimulated CAR-T cells, 3D spheroids. The class given is cell-based, human. The settings on record: 3D spheroid co-culture, five days. As for the experimental part: Anti-CD19 CAR-expressing T cells, produced as described in Example 2, were chronically stimulated with plate-bound CAR-specific anti-idiotypic antibody for seven days as described in Example 3, but in the absence of Compound 17 during chronic stimulation. Instead, chronically stimulated CAR T cells were treated with Compound 17 during re-challenge with CD19-expressing tumor cells, after which cytolytic activity and cytokine production were assessed.
Cytolytic activity also was assessed in CD19-expressing tumor spheroid cultures incubated with chronically stimulated CAR-T cells in the presence of DGKi. A549 CD19+ tumor spheroids or Granta-519 tumor spheroids were incubated with the anti-CD19 CAR-expressing T cells at an effector to target ratio of 1:2 for up to 14 days in the presence of DGKi (0-1000 nM). The tumor spheroids were engineered to express a red fluorescent dye to permit monitoring of tumor cell lysis by microscopy during the assay. Cytolytic activity was assessed by monitoring fluorescence over time, and the tumor volume (normalized to time zero) was measured as the number of red calibrated units (RCU)×μm^2 area. […]
Supernatant was collected at day 5 from the above tumor spheroid cultures with chronically stimulated CAR-expressing T cells. Cytokine production was measured from the supernatant by meso scale discovery (MSD) analysis of the collected cell supernatants. […]

A further test deals with Granta-519 cells. The test is described as follows: Rescue treatment: cytolytic activity of chronically stimulated CAR-T cells, 2D, Granta-519. The class given is cell-based, human. Particulars: higher concentrations, 2D co-culture.
For test [5], the system named is anti-CD19 CAR-T cells with K562.CD19, Granta-519 and Raji cells. The experiment in a line: CAR-T cell cytokine production in co-culture (MSD). It counts as cell-based, human.
Setting [6] is: Compound 17: 0.3 mg/kg oral once daily Days 1-30 with CAR T cells, or KO CAR T cells.
The mark [7] stands for this setting: Compound 17: 0.3 mg/kg oral once daily Days 1-30 with CAR T cells, or KO CAR T cells, vs CAR T cells without DGK KO alone.

Method for Raji-rFluc cells: For assessing in vivo anti-tumor effects, immunodeficient NSG mice were injected intravenously with 0.5×10^6 Raji-rFluc cells. […] This dose of CAR-expressing T cells was not expected to achieve complete tumor rejection.
For assessing tumor burden by bioluminescence imaging, mice received intraperitoneal injections of luciferin substrate resuspended in phosphate-buffered saline. Tumor burden and survival of treated mice were assessed until Day 50. In addition, flow cytometry for assessing circulating CAR T cell number and CD4 and CD8 expression was performed on Days 5, 12, 19, and 26. CAR expression was assessed using an anti-idiotypic (anti-ID) antibody specific for the CAR.

For the compound `CC[C@H]1CN([C@@H](CC)c2ccc(C(F)(F)F)cc2)[C@H](CC)CN1c1nc(=O)n(C)c2ccc(C#N)nc12` [Compound 17, 4-((2S,5R)-2,5-diethyl-4-((S)-1-(4-(trifluoromethyl)phenyl)propyl)piperazin-1-yl)-1-methyl-2-oxo-1,2-dihydropyrido[3,2-d]pyrimidine-6-carbonitrile], the “production of IFNγ, IL-2 and TNFα” value in test [1] is “dose-dependent increase in production of all three cytokines”; in test [4] it was “dose-dependent increase in production of all three cytokines”; in [5] (48 h co-culture with K562.CD19, Granta-519, Raji), “dose-dependent increase in production of all three cytokines”. In addition, the “T cell proliferation (% confluence)” value with anti-CD19 CAR-T cells is listed as “did not affect T cell proliferation”. In addition, the “CAR T cell expansion and/or persistence” value with anti-CD19 CAR T cells is on record as “CAR T cell expansion and/or persistence was increased in all mice”; in the test with Raji-rFluc cells (setting [6]) it was “improved CAR T cell expansion and/or persistence”; in test [3] (continuous presence of DGKi beginning on same day as T cell therapy), “can improve CAR T cell expansion and/or persistence, in particular that of CD4+ CAR T cells”. Besides, the “cytolytic activity of CAR T cells (normalized tumor volume)” value in test [2] is listed as “modestly reduced the cytolytic activity of the CAR T cells”. In addition, the tumor burden entry in the test on Raji-rFluc cells (setting [6]) is on record as “tumor burden was reduced”. For the same compound, the “anti-tumor efficacy (tumor control index)” value in the test with Raji-rFluc cells (setting [7]) was “improved anti-tumor efficacy”. Further, the survival result in the test on Raji-rFluc cells (setting [7]) was “improved survival”. Besides, the “tumor burden, survival, and CAR T cell expansion and/or persistence vs DGKα/ζ dual KO CAR T cells” value in the test on Raji-rFluc cells (continuous DGKi administration with CAR T cells) is listed as “comparable to those achieved with administration of DGKα/ζ dual KO CAR T cells”. Also, the “in vivo anti-tumor effects” value in test [3] (continuous dosing, at least once daily for a plurality of consecutive days, with engineered T cells) is listed as “improves in vivo anti-tumor effects”. Also, the “cytolytic activity of CAR T cells against Granta-519 cells” value in the test with Granta-519 cells is “improved the cytolytic activity of CAR T cells against K562.CD19 and Granta-519 cells”. Also, the “cytokine production, particularly IL-2, greatest effect” value in test [5] (higher concentrations of Compound 17, Granta-519 cells (low CD19)) is recorded as “greatest effect during co-culture with Granta-519 cells”.
